Test results reported in patent publication US20090142811A1, “Discovery, Cloning and Purification of Thermococccus sp. (Strain 9 Degrees N-7) Dna Ligase” (New England Biolabs, Inc., priority 2005, published 2009).

Biological target: T1, Thermococcus sp. (strain 9° N-7) DNA ligase, clone B2, SEQ ID NO:15 (Thermococcus nautili, UniProt W8P6M3)
T1 construct: E. coli BL21(DE3)-RIL; purified
T1 sequence (W8P6M3 with tags, fused parts or gaps): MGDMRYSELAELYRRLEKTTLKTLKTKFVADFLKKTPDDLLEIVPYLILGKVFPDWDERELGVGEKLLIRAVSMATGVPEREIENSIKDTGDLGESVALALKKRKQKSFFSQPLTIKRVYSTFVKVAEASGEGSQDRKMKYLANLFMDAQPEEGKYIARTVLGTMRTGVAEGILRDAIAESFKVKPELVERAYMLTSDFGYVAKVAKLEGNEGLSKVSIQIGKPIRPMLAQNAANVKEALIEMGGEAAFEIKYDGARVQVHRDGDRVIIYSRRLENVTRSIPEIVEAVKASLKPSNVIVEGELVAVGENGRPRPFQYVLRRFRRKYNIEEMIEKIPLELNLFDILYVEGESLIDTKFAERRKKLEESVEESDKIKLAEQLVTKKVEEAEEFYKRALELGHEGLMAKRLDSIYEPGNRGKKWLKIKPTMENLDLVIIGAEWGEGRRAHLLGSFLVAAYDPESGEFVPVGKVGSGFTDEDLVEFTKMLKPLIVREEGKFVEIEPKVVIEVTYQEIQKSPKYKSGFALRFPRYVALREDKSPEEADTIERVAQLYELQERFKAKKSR
Assay: Km for ATP of purified Thermococcus sp. (strain 9° N-7) DNA ligase (ligation of lambda DNA)
Format: biochemical
Details: typical assay: predigested lambda DNA substrate, 45° C.; recommended 10 mM Tris-HCl pH 7.5, 2.5 mM MgCl2, 2.5 mM DTT
Method: The recommended reaction conditions are:
The typical substrate for assaying activity at 45° C. is lambda DNA. Appropriately digested lambda DNA can reveal the state of ligation of the 12-base extension at the termini of lambda DNA. We typically used either a HindIII or BstEII predigested lambda DNA. Analysis of the ligation was performed on agarose gel electrophoresis.

- Km: < 100 µM
Compound: Nc1ncnc2c1ncn2[C@@H]1O[C@H](COP(=O)(O)OP(=O)(O)OP(=O)(O)O)[C@@H](O)[C@H]1O [ATP]
